Reference: patent US20260182575A1, “MOLECULES HAVING PESTICIDAL UTILITY AND INTERMEDIATES AND PROCESSES RELATED THERETO” (CORTEVA AGRISCIENCE LLC, priority 2022, published 2026)
Several values for one entry are separate records, joined by “and”; a condition that tells them apart may be missing. Equal entries are not always repeated.

How the values were obtained:
Assay type in all cases: in vivo
[1] = test system: Western Flower Thrips (Frankliniella occidentalis, FRANOC, WFT); assay: Bioassay 3: western flower thrips, cotton leaf disc dip; conditions: for Average % Control AI: 3 days; for Average % Control F1: F1 alone, 3 days after treatment
[2] = test system: Fall Armyworm (Spodoptera frugiperda, LAPHFR, FAW); assay: Bioassay 4: fall armyworm, artificial diet, 128-cell tray; conditions: AI alone
Procedure, shortened: (§1)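 Test solutions (0.0000004–0.04% w/v, i.e. 0.00005–5 μg/cm² on diet) were pipetted onto artificial lepidopteran diet and one 2nd-instar larva was placed per cell, 8 replicates per species, held at ~26° C. Live larvae were counted after 5 days; percent control used Abbott's correction against a solvent check.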

[3] = test system: Soybean Looper (Chrysodeixis includens, PSEPIN, SBL); assay: Bioassay 4: soybean looper, artificial diet, 128-cell tray; conditions: AI alone
Procedure, shortened: as §1

[4] = AI alone at 1:1 rate to F1 0.78 (10^-6 Wt %)
[5] = AI alone at 1:1 rate to F1 3.125 (10^-6 Wt %)

Row | Molecule | Average % Control AI [1, 4] [%] | Average % Control AI ([2]; 0.000004 wt %) [%] | Average % Control AI ([2]; 0.00004 wt %) [%] | Average % Control AI ([3]; 0.000004 wt %) [%] | Average % Control AI ([3]; 0.00004 wt %) [%] | Average % Control AI [1, 5] [%] | Average % Control AI ([1]; AI alone at 1:1 rate to F1 0.195 (10^-6 Wt %)) [%] | Average % Control AI ([1]; AI alone at 1:1 rate to F1 12.5 (10^-6 Wt %)) [%] | Average % Control AI ([1]; AI alone at 1:1 rate to F1 50 (10^-6 Wt %)) [%] | Average % Control F1 ([1]; Wt % F1 (10^-6) 0.195, cotton leaf disc) | Average % Control F1 ([1]; Wt % F1 (10^-6) 12.5, cotton leaf disc) [%] | Average % Control F1 ([1]; Wt % F1 (10^-6) 50, cotton leaf disc) [%]
1 | Chlorfenapyr | 16.7 | 0.0 | 37.5 | 25.0 | 37.5 |  |  |  |  |  |  | 
2 | COC(=O)N(C(=O)N1CO[C@@]2(C(=O)OC)Cc3cc(Cl)ccc3C2=N1)c1ccc(OC(F)(F)F)cc1 [Indoxacarb] |  | 0.0 | 0.0 | 0.0 |  |  |  |  |  |  |  | 
3 | Cc1c(COC(=O)[C@@H]2[C@H](/C=C(\Cl)C(F)(F)F)C2(C)C)cccc1-c1ccccc1 (racemic) [Bifenthrin] |  | 12.5 | 12.5 | 0.0 | 0.0 | 11.5 |  |  |  |  |  | 
4 | CON=CNC(=O)c1ccc(C2=NOC(c3cc(Cl)cc(Cl)c3)(C(F)(F)F)C2)cc1C (stereo not shown) [Fluxametamide] |  | 12.5 |  | 12.5 |  | 4.8 |  |  |  |  |  | 
5 | CN1COCN(Cc2cnc(Cl)s2)/C1=N\[N+](=O)[O-] [Thiamethoxam] | 20.0 | 0.0 |  | 0.0 |  | 6.7 | 20.0 |  |  |  |  | 
6 | CC1=NNC(=O)N(/N=C/c2cccnc2)C1 [Pymetrozine] |  | 0.0 | 0.0 | 12.5 |  | 21.4 |  |  |  |  |  | 
7 | C[C@]1(COC(=O)C2CC2)[C@@H]2C[C@H](O)[C@@]3(C)Oc4cc(-c5cccnc5)oc(=O)c4[C@H](O)[C@@H]3[C@@]2(C)CC[C@@H]1OC(=O)C1CC1 [Afidopyropen] |  | 0.0 | 0.0 | 0.0 | 0.0 |  |  | 0.0 | 5.7 |  |  | 
8 | Cc1ccc(COCC(F)(F)F)c(N2C(=O)CS/C2=N\C(=O)Nc2ccc(-c3ncn(-c4ccc(OC(F)(F)F)cc4)n3)cc2F)c1 [F1] |  |  |  |  |  |  |  |  |  | 0.0% and 5.7% | 46.0 | 79.3
